# Legend:
# [1] = Indices of Tableting Performance (Hiestand and Smith); type: physicochemical; details: bulk azithromycin; for Brittle Fracture Index (BFI): Lots 1, 2 and 4 milled (Fitzmill, 0.027" screen, knives, high speed) for this test; for Strain Index (SI) / Tensile Strength / Worst Case Bonding Index (BLw) × 10^2: Lots 1, 2 and 4 milled for this test
# Protocol: Indices of tableting performance, for several azithromycin forms, were assessed to identify any mechanical deficiencies or attributes that may affect the ability to develop a direct compression tablet formulation of azithromycin. This assessment was performed in accordance with the procedures described in “Indices of Tableting Performance” H. E. N. Hiestand and D. P. Smith, Powder Technology 38 [1984] pp. 145–159.
# More specifically, the Brittle Fracture Index, BFI, was calculated from the ratio of a material's regular tensile strength to its compromised tensile strength. Strain Index, SI, was determined from the dynamic indentation hardness test. Worst Case Bonding Index was determined by assessing the extent of particle bonding remaining after decompression assuming a very short compression dwell time and a plastic mechanism of particle separation during decompression.
# Bulk azithromycin lots 1, 2, 4, 7, 10 and 11 are different crystalline forms, respectively, forms N, M, G, A, F and J. Lots 1, 2 and 4 were milled with a Fitzmill (Model JT, The Fitzpatrick Co., Elmhurst, Ill.) using a 0.027″ screen and knives at high speed in an attempt to match the smaller particle size of Lot 7. Lots 10 and 11 were evaluated as is due to their relatively small particle sizes.
# [2] = Carr's Compressibility Index from initial and tapped density; type: physicochemical; details: for Carr's Index: blend with ˜60% drug loading
# Protocol: Carr's Compressibility Index is a simple test to evaluate flowability by comparing both the initial and final (tapped) densities and the rate of packing down. A useful empirical guide to flow is given by Carr's compressibility index: Compressibility Index(%)=[(tapped density−initial density)/tapped density]×100
# Carr's Compressibility Index of the azithromycin bulk was measured by taking an initial density of a 15 gram sample in a 100 ml graduated cylinder. The sample was tapped 2000 times on a VanKel Tap Density Tester (Model 50-1200, Edison, N.J.) and the tapped density of the 15 gram sample in the 100 ml graduated cylinder was taken. The procedure is described in Int. J. Pharm. Tech. & Prod. Mfr., 6(3) 10–16, 1985.
# The ingredients were weighed (except for the magnesium stearate), combined and blended in a low shear blender for 30 minutes. The blend was passed through a U.S. standard No. 20 or No. 25 mesh screen to delump the blend. The screened blend was returned to the blender and blended for an additional 30 minutes. Prior to the addition of the magnesium stearate, the initial and tapped densities of the blend were determined from which a Carr's Compressibility Index for flow was calculated for the blend. Magnesium stearate was then added to the blend, after which it was blended for an additional five minutes.
smiles,measurement,setting,value
"CC[C@H]1OC(=O)[C@H](C)[C@@H](O[C@H]2C[C@@](C)(OC)[C@@H](O)[C@H](C)O2)[C@H](C)[C@@H](O[C@@H]2O[C@H](C)C[C@H](N(C)C)[C@H]2O)[C@](C)(O)C[C@@H](C)CN(C)[C@H](C)[C@@H](O)[C@]1(C)O [Lot 1, azithromycin]",Brittle Fracture Index (BFI),[1]; listed as #1 Form N,0.05
same,Strain Index (SI),[1]; listed as #1 Form N,0.0044
same,Tensile Strength,[1]; listed as #1 Form N,0.75 Mpa
same,Worst Case Bonding Index (BLw) × 10^2,[1]; listed as #1 Form N,0.7
"CC[C@H]1OC(=O)[C@H](C)[C@@H](O[C@H]2C[C@@](C)(OC)[C@@H](O)[C@H](C)O2)[C@H](C)[C@@H](O[C@@H]2O[C@H](C)C[C@H](N(C)C)[C@H]2O)[C@](C)(O)C[C@@H](C)CN(C)[C@H](C)[C@@H](O)[C@]1(C)O [Lot 2, azithromycin]",Brittle Fracture Index (BFI),[1]; listed as #2 Form M,0.10
same,Strain Index (SI),[1]; listed as #2 Form M,0.0048
same,Tensile Strength,[1]; listed as #2 Form M,0.79 Mpa
same,Worst Case Bonding Index (BLw) × 10^2,[1]; listed as #2 Form M,1.0
"CC[C@H]1OC(=O)[C@H](C)[C@@H](O[C@H]2C[C@@](C)(OC)[C@@H](O)[C@H](C)O2)[C@H](C)[C@@H](O[C@@H]2O[C@H](C)C[C@H](N(C)C)[C@H]2O)[C@](C)(O)C[C@@H](C)CN(C)[C@H](C)[C@@H](O)[C@]1(C)O [Lot 4, azithromycin]",Strain Index (SI),[1]; listed as #4 Form G,0.0043
same,Tensile Strength,[1]; listed as #4 Form G,1.03 Mpa
same,Worst Case Bonding Index (BLw) × 10^2,[1]; listed as #4 Form G,0.8
"CC[C@H]1OC(=O)[C@H](C)[C@@H](O[C@H]2C[C@@](C)(OC)[C@@H](O)[C@H](C)O2)[C@H](C)[C@@H](O[C@@H]2O[C@H](C)C[C@H](N(C)C)[C@H]2O)[C@](C)(O)C[C@@H](C)CN(C)[C@H](C)[C@@H](O)[C@]1(C)O [Lot 6, azithromycin]",Carr's Compressibility Index,[2]; blend of 59.3 wt % azithromycin without glidant,30
"CC[C@H]1OC(=O)[C@H](C)[C@@H](O[C@H]2C[C@@](C)(OC)[C@@H](O)[C@H](C)O2)[C@H](C)[C@@H](O[C@@H]2O[C@H](C)C[C@H](N(C)C)[C@H]2O)[C@](C)(O)C[C@@H](C)CN(C)[C@H](C)[C@@H](O)[C@]1(C)O [Lot 7, azithromycin]",Brittle Fracture Index (BFI),[1]; listed as #7 Form A,0.10
same,Strain Index (SI),[1]; listed as #7 Form A,0.0044
same,Tensile Strength,[1]; listed as #7 Form A,0.99 Mpa
same,Worst Case Bonding Index (BLw) × 10^2,[1]; listed as #7 Form A,0.9
"CC[C@H]1OC(=O)[C@H](C)[C@@H](O[C@H]2C[C@@](C)(OC)[C@@H](O)[C@H](C)O2)[C@H](C)[C@@H](O[C@@H]2O[C@H](C)C[C@H](N(C)C)[C@H]2O)[C@](C)(O)C[C@@H](C)CN(C)[C@H](C)[C@@H](O)[C@]1(C)O [Lot 8, azithromycin]",Carr's Index,[2],37
"CC[C@H]1OC(=O)[C@H](C)[C@@H](O[C@H]2C[C@@](C)(OC)[C@@H](O)[C@H](C)O2)[C@H](C)[C@@H](O[C@@H]2O[C@H](C)C[C@H](N(C)C)[C@H]2O)[C@](C)(O)C[C@@H](C)CN(C)[C@H](C)[C@@H](O)[C@]1(C)O [Lot 10, azithromycin]",Carr's Index,[2],34
same,Brittle Fracture Index (BFI),[1]; listed as #10 Form F,0.37
same,Strain Index (SI),[1]; listed as #10 Form F,0.0041
same,Tensile Strength,[1]; listed as #10 Form F,1.62 Mpa
same,Worst Case Bonding Index (BLw) × 10^2,[1]; listed as #10 Form F,0.9
"CC[C@H]1OC(=O)[C@H](C)[C@@H](O[C@H]2C[C@@](C)(OC)[C@@H](O)[C@H](C)O2)[C@H](C)[C@@H](O[C@@H]2O[C@H](C)C[C@H](N(C)C)[C@H]2O)[C@](C)(O)C[C@@H](C)CN(C)[C@H](C)[C@@H](O)[C@]1(C)O [Lot 11, azithromycin]",Brittle Fracture Index (BFI),[1]; listed as #11 Form J,0.11
same,Strain Index (SI),[1]; listed as #11 Form J,0.0043
same,Tensile Strength,[1]; listed as #11 Form J,0.69 Mpa
same,Worst Case Bonding Index (BLw) × 10^2,[1]; listed as #11 Form J,0.7

# Reference: patent US7070811B2, “Directly compressible formulations of azithromycin” (Pfizer Inc., priority 2001, dated 2006)
